Assay: Biochemical Assay: Test compounds were placed in a Greiner Bio-One (Monroe, N.C.) 1536-well black solid bottom assay plate. 200 millimolar (mM) Tris HCl, pH 7.4, 100 micromolar (μM) EDTA and 0.01% TWEEN-20, final concentration, was used as the assay buffer. The LDHA reagent was 2 nanomolar (nM) Human LDHA (Meridian Life Science, Inc., Memphis, Tenn.), final concentration, in assay buffer. The substrate reagent was 0.06 mM NADH and 0.2 mM sodium pyruvate, final concentration, in assay buffer. The resazurin/diaphorase coupling reagent was 0.037 mM resazurin and 0.133 milligrams per milliliter (mg/mL) diaphorase, final concentration, in assay buffer. The inhibition of LDHA activity was measured by fluorescence emission.

Structure (SMILES) | IC50
N[S+](=O)([O-])c1ccc(Cc2c(-c3cccc(-c4ccc(C(F)(F)C(F)(F)F)cc4)c3)nn(-c3nc(C(=O)O)cs3)c2CCC2CC2)cc1F | in the range around 550 nM
Cc1ccc(C#Cc2cccc(-c3nn(-c4nc(C(=O)NC#N)cs4)c(CC4CC4)c3Cc3ccc([SH+](N)[O-])c(F)c3)c2)s1 (stereo not given) | in the range around 29000 nM
N[SH+]([O-])c1ccc(Cc2c(-c3cccc(-c4cc(F)cc(F)c4)c3)nn(-c3nc(C(=O)O)cs3)c2CC2CC2)cc1F (stereo not given) | < 100 nM
NS(=O)(=O)c1ccc(Cc2c(-c3cccc(-c4nc5ccccc5[nH]4)c3)nn(-c3nc(C(=O)O)cs3)c2CC2CC2)cc1F | < 100 nM
CC(C)c1ccc(-c2cccc(-c3nn(-c4nc(C(=O)O)cs4)c(CCC4CC4)c3Cc3ccc([S+](N)(=O)[O-])c(F)c3)c2)cc1 | in the range around 550 nM
Cc1ccc(C#Cc2cc(-c3nn(-c4nc(C(=O)O)cs4)c(CC4CC4)c3Cc3ccc([SH+](N)[O-])c(F)c3)ccc2F)s1 (stereo not given) | < 100 nM
CC(C)Cc1ccc(-c2cccc(-c3nn(-c4nc(C(=O)O)cs4)c(CCC4CC4)c3Cc3ccc([S+](N)(=O)[O-])c(F)c3)c2)cc1 | in the range around 550 nM
CN(C)c1ccc(-c2cccc(-c3nn(-c4nc(C(=O)O)cs4)c(CC4CC4)c3Cc3ccc([SH+](N)[O-])c(F)c3)c2)cc1 (stereo not given) | < 100 nM
Cc1ccc(C#Cc2cccc(-c3nn(-c4nc(CO)cs4)c(CC4CC4)c3Cc3ccc([SH+](N)[O-])c(F)c3)c2)s1 (stereo not given) | > 57000 nM
N#Cc1ccc(-c2cccc(-c3nn(-c4nc(C(=O)O)cs4)c(CC4CC4)c3Cc3ccc([SH+](N)[O-])c(F)c3)c2)cc1 (stereo not given) | < 100 nM

From ChEMBL document CHEMBL5728348, “1 H-pyrazol-1-yl-thiazoles as inhibitors of lactate dehydrogenase and methods of use thereof” (2021)
